In doi:10.1101/2021.10.22.465361v1 (biorxiv, 2021):

These compounds were tested against T1, FABP7 (Brain fatty acid binding protein) (Homo sapiens, UniProt O15540) (assay: microscale thermophoresis).
T1 sequence (O15540 2-132): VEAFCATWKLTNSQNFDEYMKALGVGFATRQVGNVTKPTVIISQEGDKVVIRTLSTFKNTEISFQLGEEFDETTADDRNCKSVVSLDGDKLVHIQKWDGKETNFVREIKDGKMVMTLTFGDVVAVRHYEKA

Row | Kd [nM] | Structure (SMILES)
1 | ~500 | CC/C=C\C/C=C\C/C=C\C/C=C\C/C=C\C/C=C\CCC(=O)O [DHA, docosahexaenoic acid]
2 | ~500 | CCCCCCCC/C=C\CCCCCCCC(=O)O [OA, oleic acid]
3 | ~500 | CCCCCCCCCCCCCCCCCC(=O)O [SA, stearic acid]
